# Test results reported in PubChem BioAssay AID248 (DTP/NCI, 2004).
# Several values for one entry are separate records, joined by “and”; a condition that tells them apart may be missing. Equal entries are not always repeated. Toxic doses and inconclusive results are not listed.
# Test system: L1210 leukemia ip in BDF1 mice, survival T/C
# Assay: NCI In Vivo Anticancer Drug Screen. Data for tumor model L1210 Leukemia (intraperitoneal) in B6D2F1 (BDF1) mice
# Conditions: higher = longer survival
# In short: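 Tumor cells were implanted, animals were treated, and survival was followed. The result divides the treated measurement by the vehicle-control measurement.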
# [1] = endpoint: mean survival time, dose: 100.0 mg/kg/injection, schedule: Q01DX009 (ip), vehicle: Klucel (hydroxypropylcellulose) (HPC)
# [2] = endpoint: mean survival time, dose: 200.0 mg/kg/injection, schedule: Q01DX009 (ip), vehicle: Klucel (hydroxypropylcellulose) (HPC)
# [3] = endpoint: mean survival time, dose: 100.0 mg/kg/injection, schedule: Q04DX002 (ip), vehicle: saline with Tween-80
# [4] = endpoint: mean survival time, dose: 100.0 mg/kg/injection, schedule: Q04DX002 (ip), vehicle: saline
# [5] = endpoint: mean survival time, dose: 200.0 mg/kg/injection, schedule: Q04DX002 (ip), vehicle: saline with Tween-80
# [6] = endpoint: mean survival time, dose: 200.0 mg/kg/injection, schedule: Q04DX002 (ip), vehicle: saline
# [7] = endpoint: mean survival time, dose: 400.0 mg/kg/injection, schedule: Q04DX002 (ip), vehicle: saline with Tween-80
# [8] = endpoint: mean survival time, dose: 400.0 mg/kg/injection, schedule: Q04DX002 (ip), vehicle: saline
# [9] = endpoint: mean survival time, dose: 50.0 mg/kg/injection, schedule: Q04DX003 (ip), vehicle: saline with Tween-80
# [10] = endpoint: mean survival time, dose: 25.0 mg/kg/injection, schedule: Q04DX003 (ip), vehicle: Klucel (hydroxypropylcellulose) (HPC)
# [11] = endpoint: mean survival time, dose: 50.0 mg/kg/injection, schedule: Q04DX003 (ip), vehicle: Klucel (hydroxypropylcellulose) (HPC)
# [12] = endpoint: mean survival time, dose: 100.0 mg/kg/injection, schedule: Q04DX003 (ip), vehicle: Klucel (hydroxypropylcellulose) (HPC)
# [13] = endpoint: mean survival time, dose: 100.0 mg/kg/injection, schedule: Q01DX001 (ip), vehicle: saline
# [14] = endpoint: mean survival time, dose: 200.0 mg/kg/injection, schedule: Q01DX001 (ip), vehicle: saline
smiles,measurement,setting,value
Cc1cc(C)nc(N)c1,T/C,"endpoint: mean survival time, dose: 12.5 mg/kg/injection, schedule: Q04DX002 (ip), vehicle: saline",105 % of control
same,T/C,"endpoint: mean survival time, dose: 25.0 mg/kg/injection, schedule: Q04DX002 (ip), vehicle: saline",114 % of control
CC/C(C)=C\CC/C(C)=C/COc1cccc(C(C)=O)c1,T/C,"endpoint: mean survival time, dose: 75.0 mg/kg/injection, schedule: Q01DX009 (ip), vehicle: carboxymethylcellulose (CMC)",94 % of control
same,T/C,"endpoint: mean survival time, dose: 150.0 mg/kg/injection, schedule: Q01DX009 (ip), vehicle: carboxymethylcellulose (CMC)",90 % of control
same,T/C,"endpoint: mean survival time, dose: 300.0 mg/kg/injection, schedule: Q01DX009 (ip), vehicle: carboxymethylcellulose (CMC)",92 % of control
O=C1NC(=O)C(c2ccc(Cl)cc2)(c2ccc(Cl)cc2)N1,T/C,"endpoint: mean survival time, dose: 45.0 mg/kg/injection, schedule: Q01DX009 (ip), vehicle: Klucel (hydroxypropylcellulose) (HPC)",99 % of control
same,T/C,"endpoint: mean survival time, dose: 65.0 mg/kg/injection, schedule: Q01DX009 (ip), vehicle: Klucel (hydroxypropylcellulose) (HPC)",95 % of control
same,T/C,[1],100 % of control
same,T/C,"endpoint: mean survival time, dose: 100.0 mg/kg/injection, schedule: Q04DX003 (ip), vehicle: saline",96 % of control
same,T/C,"endpoint: mean survival time, dose: 150.0 mg/kg/injection, schedule: Q01DX009 (ip), vehicle: Klucel (hydroxypropylcellulose) (HPC)",103 % of control
same,T/C,[2],100 % of control
same,T/C,"endpoint: mean survival time, dose: 200.0 mg/kg/injection, schedule: Q04DX003 (ip), vehicle: saline",92 % of control
same,T/C,"endpoint: mean survival time, dose: 400.0 mg/kg/injection, schedule: Q01DX009 (ip), vehicle: Klucel (hydroxypropylcellulose) (HPC)",113 % of control
same,T/C,"endpoint: mean survival time, dose: 400.0 mg/kg/injection, schedule: Q04DX003 (ip), vehicle: saline",97 % of control
O=C(CCCCCC(=O)NO)NO,T/C,[3],93 % of control
same,T/C,[4],100 % of control
same,T/C,[5],97 % of control
same,T/C,[6],93 % of control
same,T/C,[7],97 % of control
same,T/C,[8],93 % of control
CC(=O)Nc1ccc([I+]c2ccc([N+](=O)[O-])cc2)cc1,T/C,"endpoint: mean survival time, dose: 6.25 mg/kg/injection, schedule: Q01DX009 (ip), vehicle: Klucel (hydroxypropylcellulose) (HPC)",90 % of control
same,T/C,"endpoint: mean survival time, dose: 12.5 mg/kg/injection, schedule: Q01DX009 (ip), vehicle: Klucel (hydroxypropylcellulose) (HPC)",98 % of control
same,T/C,"endpoint: mean survival time, dose: 25.0 mg/kg/injection, schedule: Q01DX009 (ip), vehicle: Klucel (hydroxypropylcellulose) (HPC)",104 % of control
same,T/C,"endpoint: mean survival time, dose: 50.0 mg/kg/injection, schedule: Q01DX009 (ip), vehicle: Klucel (hydroxypropylcellulose) (HPC)",106 % of control
same,T/C,[1],101 % of control
same,T/C,"endpoint: mean survival time, dose: 200.0 mg/kg/injection, schedule: Q01DX009 (ip), vehicle: saline with Tween-80",109 % of control
CCOC(=O)NC(=S)[S][Sb]([S]C(=S)NC(=O)OCC)[S]C(=S)Nc1ccc(S(=O)(=O)Nc2ccc(N=Nc3ccccc3)cc2)cc1,T/C,"endpoint: mean survival time, dose: 100.0 mg/kg/injection, schedule: Q01DX001 (ip), vehicle: steriod suspending solution",103 % of control
same,T/C,"endpoint: mean survival time, dose: 400.0 mg/kg/injection, schedule: Q01DX001 (ip), vehicle: steriod suspending solution",106 % of control
CN(C)c1n[nH]c(N=[N+]=[N-])n1,T/C,[3],104 % of control
same,T/C,[5],90 % of control
same,T/C,[7],104 % of control
O=C(O)C1=CCCC1,T/C,"endpoint: mean survival time, dose: 222.0 mg/kg/injection, schedule: Q01DX Z (ip), vehicle: saline",103 % of control
same,T/C,"endpoint: mean survival time, dose: 333.0 mg/kg/injection, schedule: Q01DX Z (ip), vehicle: saline",102 % of control
same,T/C,"endpoint: mean survival time, dose: 500.0 mg/kg/injection, schedule: Q01DX Z (ip), vehicle: saline",96 % of control
CN(CCO)/N=N/c1[nH]ncc1C(N)=O,T/C,"endpoint: mean survival time, dose: 54.0 mg/kg/injection, schedule: Q01DX009 (ip), vehicle: other",124 % of control
same,T/C,"endpoint: mean survival time, dose: 176.0 mg/kg/injection, schedule: Q01DX009 (ip), vehicle: other",159 % of control
same,T/C,"endpoint: mean survival time, dose: 345.0 mg/kg/injection, schedule: Q01DX009 (ip), vehicle: saline with Tween-80",163 % of control
same,T/C,"endpoint: mean survival time, dose: 400.0 mg/kg/injection, schedule: Q01DX009 (ip), vehicle: other",159 % of control
same,T/C,"endpoint: mean survival time, dose: 472.25 mg/kg/injection, schedule: Q01DX001 (ip), vehicle: saline with Tween-80",109 % of control
same,T/C,"endpoint: mean survival time, dose: 600.0 mg/kg/injection, schedule: Q01DX009 (ip), vehicle: other",189 % of control
same,T/C,"endpoint: mean survival time, dose: 690.0 mg/kg/injection, schedule: Q01DX009 (ip), vehicle: saline with Tween-80",192 % of control
same,T/C,"endpoint: mean survival time, dose: 900.0 mg/kg/injection, schedule: Q01DX009 (ip), vehicle: other",196 % of control
same,T/C,"endpoint: mean survival time, dose: 944.5 mg/kg/injection, schedule: Q01DX001 (ip), vehicle: saline with Tween-80",119 % of control
same,T/C,"endpoint: median survival time, dose: 63.0 mg/kg/injection, schedule: Q01DX009 (ip), vehicle: saline",119 % of control
same,T/C,"endpoint: median survival time, dose: 250.0 mg/kg/injection, schedule: Q01DX009 (ip), vehicle: saline",156 % of control
same,T/C,"endpoint: median survival time, dose: 500.0 mg/kg/injection, schedule: Q01DX009 (ip), vehicle: saline",173 % of control
same,T/C,"endpoint: median survival time, dose: 1000.0 mg/kg/injection, schedule: Q01DX009 (ip), vehicle: saline",201 % of control
CN(C)c1ccc(-c2c3cc(O)c(=O)cc-3oc3cc(O)c(O)cc23)cc1,T/C,[9],95 % of control
same,T/C,"endpoint: mean survival time, dose: 100.0 mg/kg/injection, schedule: Q04DX003 (ip), vehicle: saline with Tween-80",90 % of control
same,T/C,"endpoint: mean survival time, dose: 200.0 mg/kg/injection, schedule: Q04DX003 (ip), vehicle: saline with Tween-80",87 % of control
C/C=C/[N+]([O-])=NC(C)CCCCCC (centres undefined),T/C,[4],105 % of control
same,T/C,[6],97 % of control
same,T/C,[8],94 % of control
CCCCOC(=O)CN(C)/N=N/c1nc[nH]c1C(=O)OCC,T/C,"endpoint: mean survival time, dose: 25.0 mg/kg/injection, schedule: Q01DX001 (ip), vehicle: Klucel (hydroxypropylcellulose) (HPC)",97 % of control
same,T/C,[10],99 % of control
same,T/C,"endpoint: mean survival time, dose: 50.0 mg/kg/injection, schedule: Q01DX001 (ip), vehicle: Klucel (hydroxypropylcellulose) (HPC)",97 % of control
same,T/C,[11],96 % of control
same,T/C,"endpoint: mean survival time, dose: 100.0 mg/kg/injection, schedule: Q01DX001 (ip), vehicle: Klucel (hydroxypropylcellulose) (HPC)",99 % of control and 104 % of control
same,T/C,[12],94 % of control
CCCCCSP(=O)(SCCCCC)c1ccccc1,T/C,[1],91 % of control
same,T/C,[2],94 % of control
OC(CNc1ccccc1)CN1CCN(CC(O)CNc2ccccc2)CC1 (centres undefined),T/C,"endpoint: mean survival time, dose: 50.0 mg/kg/injection, schedule: Q01DX001 (ip), vehicle: saline",105 % of control
same,T/C,[13],98 % of control
same,T/C,[14],94 % of control
COc1ccc2c(c1)CCC1(C)CC(C)C(=O)C=C21 (centres undefined),T/C,[12],92 % of control
same,T/C,"endpoint: mean survival time, dose: 200.0 mg/kg/injection, schedule: Q04DX003 (ip), vehicle: Klucel (hydroxypropylcellulose) (HPC)",91 % of control
same,T/C,"endpoint: mean survival time, dose: 400.0 mg/kg/injection, schedule: Q04DX003 (ip), vehicle: Klucel (hydroxypropylcellulose) (HPC)",92 % of control
Cc1ccc(S(=O)NNc2ccccc2)cc1 (centres undefined),T/C,[13],93 % of control
same,T/C,[14],104 % of control
same,T/C,"endpoint: mean survival time, dose: 400.0 mg/kg/injection, schedule: Q01DX001 (ip), vehicle: saline",93 % of control
COC(=O)CCN1CC1(C)C (centres undefined),T/C,[10],96 % of control
same,T/C,[11],98 % of control
same,T/C,[12],96 % of control
COc1ccc2c(ccc[n+]2C)c1,T/C,"endpoint: mean survival time, dose: 11.0 mg/kg/injection, schedule: Q01DX009 (ip), vehicle: saline",103 % of control
same,T/C,"endpoint: mean survival time, dose: 12.5 mg/kg/injection, schedule: Q01DX009 (ip), vehicle: saline",102 % of control
same,T/C,"endpoint: mean survival time, dose: 12.5 mg/kg/injection, schedule: Q04DX003 (ip), vehicle: saline with Tween-80",96 % of control
same,T/C,"endpoint: mean survival time, dose: 16.5 mg/kg/injection, schedule: Q01DX009 (ip), vehicle: saline",117 % of control
same,T/C,"endpoint: mean survival time, dose: 25.0 mg/kg/injection, schedule: Q01DX009 (ip), vehicle: saline",109 % of control and 110 % of control
same,T/C,"endpoint: mean survival time, dose: 25.0 mg/kg/injection, schedule: Q04DX003 (ip), vehicle: saline with Tween-80",102 % of control
same,T/C,"endpoint: mean survival time, dose: 33.0 mg/kg/injection, schedule: Q01DX009 (ip), vehicle: saline",113 % of control
same,T/C,"endpoint: mean survival time, dose: 37.5 mg/kg/injection, schedule: Q01DX009 (ip), vehicle: saline",115 % of control
same,T/C,"endpoint: mean survival time, dose: 50.0 mg/kg/injection, schedule: Q01DX009 (ip), vehicle: saline",115 % of control and 87 % of control
same,T/C,[9],100 % of control
same,T/C,"endpoint: mean survival time, dose: 75.0 mg/kg/injection, schedule: Q01DX001 (ip), vehicle: carboxymethylcellulose (CMC)",108 % of control
